In patent US6455469B1, “Herbicidal composition” (Ishihara Sangyo Kaisha, Ltd., priority 2000, dated 2002):

Tests used:
Assay type in all cases: in vivo
[1] = test system: six broadleaf weeds (CASOB, IPOHE, ABUTH, AMARE, CHEAL, XANST); experiment: Greenhouse pre-emergence test, mean control of six broadleaf weeds; details: soil surface spray 1 day after planting, visual rating 0-100% after two weeks, grass herbicides 1000 g/ha, atrazine 1680 g/ha, isoxaflutole 78 g/ha, B-128 125 g/ha
From the text: (§1) Seeds of weed species were sown in 10 cm square plastic pots containing a 3:2:1 sand:soil:peat mixture. Species included six broadleaf weeds, CASOB (Cassia obtusifolia, L., sicklepod), IPOHE (Ipomoea hederacea, L., ivyleaf morningglory), ABUTH (Abutilon theophrastii, velvetleaf, AMARE (Amaranthus retroflexus, redroot pigweed), CHEAL (Chenopodium album, lambsquarters) and XANST (Xanthium strumarium, cocklebur ), four grass weeds, SORHA (Sorghum halepense, johnsongrass), SETVI (Setaria viridis, green foxtail), ECHCG (Echinochloa crus-galli, bamyardgrass), and DIGSA (Digitria sanguinalis, large crabgrass) and four crops species, Zea mays, Glycine max L. Triticum aestivum, and Oryza sativa. Herbicide treatments were applied in water carrier via automated track sprayer to the soil surface of these pots 1 day after planting. The sprayer was calibrated to deliver the material in a volume of 187 l/ha through a TJ8001E spray nozzle at a pressure of 40 PSI.
(§2) Treatments included the compounds of formula I numbers 1, 15, 16 and 23, the commercial grass herbicides metolachlor S (Dual II Magnum®), acetochlor (Harness®), alachlor (Lasso MT®) alone and in combination with three broadleaf herbicides, atrazine, isoxaflutole and compound B-128 (Table 2). All grass herbicides (compounds 1, 15, 16, 23, metolachlor S, acetochlor and alachor were applied at a rate of 1000 g/ha. The broadleaf herbicides were applied at 1680 g/ha for atrazine, 78 g/ha for isoxaflutole and 125 g/ha for B-128.
(§3) After treatment, pots were returned to a greenhouse where they were watered and held in good growth conditions for two weeks. At the end of two weeks, herbicidal efficacy was evaluated visually using a rating system from 0-100%, where 0=no inhibition of growth, and 100=complete death of all plants in the testing unit. Results are reported in table 3 as the mean control of all six broadleaf weeds, mean control of all four grass weeds and the phytotoxicity to maize.

[2] = test system: four grass weeds (SORHA, SETVI, ECHCG, DIGSA); experiment: Greenhouse pre-emergence test, mean control of four grass weeds; details: soil surface spray 1 day after planting, visual rating 0-100% after two weeks, grass herbicides 1000 g/ha, atrazine 1680 g/ha, isoxaflutole 78 g/ha, B-128 125 g/ha
From the text: as §1, §2, §3

[3] = test system: Amaranthus retroflexus, Abutilon theophrasti, Chenopodium album, Ipomoea hederacea, and Setaria viridis; experiment: Field trials, overall herbicidal performance in words
From the text: (§4) Two field trials were established on contrasting soil types. Trial 1 was on a soil with low organic matter and high sand content, and trial 2 was on a clay loam soil with moderate amounts of organic matter. In both cases, the soil was overseeded (followed by light tillage) with seeds of Amaranthus retroflexus, Abutilon theophrasti, Chenopodium album, Ipomoea hederacea, and Setaria viridis to ensure consistent weed populations. Maize was planted with 30 inches between rows. Immediately after planting the maize, herbicidal treatments were applied using a boom sprayer equipped with Tee Jet 110-015 nozzles applying the spray solution at a rate of 187 l/hectare. Untreated check plots were included as the basis for comparison of herbicidal efficacy.
(§5) Treatments included the compound of formula I number 16, the commercial grass herbicides metolachlor S (Dual II Magnum®), acetochlor (Harness®) and dimethenamid (Frontier®) alone and in combination with two broadleaf herbicides, atrazine and B-128. All grass herbicides (compound 16, metolachlor S, acetochlor and dimethenamid) were applied at a rate of 1000 g/ha. The broadleaf herbicides were applied at 1680 g/ha for atrazine and 150 g/ha for B-128.
Observations on percent weed control and phytotoxicity to maize were made at 35 days after treatment for field trial 1 and 21 days after application for field trial 2. […]

Setaria viridis = experiment: Field trials, control of Setaria viridis; details: grass herbicides 1000 g/ha, atrazine 1680 g/ha, B-128 150 g/ha
From the text: as §4, §5
(§6) Observations on percent weed control and phytotoxicity to maize were made at 35 days after treatment for field trial 1 and 21 days after application for field trial 2. All visual estimates were made in comparison to untreated check plots. Results reported are the mean control of broadleaf weeds, and percent control for Setaria viridis, the predominant grassy weed in this experiment.

broadleaf weeds = experiment: Field trials, mean control of broadleaf weeds; details: grass herbicides 1000 g/ha, atrazine 1680 g/ha, B-128 150 g/ha
From the text: as §4, §5, §6

maize [4] = experiment: Field trials, phytotoxicity to maize; details: grass herbicides 1000 g/ha, atrazine 1680 g/ha, B-128 150 g/ha
From the text: as §4, §5, §6

maize [5] = experiment: Greenhouse pre-emergence test, phytotoxicity to maize
From the text: as §1, with “PSI. […]” for “PSI.”
as §3, with “Results are reported in table 3 as the mean control of all six broadleaf weeds, mean control of all four grass weeds and the phytotoxicity to maize.” left out

[6] = field trial 1, low organic matter, high sand content soil, 35 days after application
[7] = field trial 2, moderate organic matter, high clay content soil, 21 days after application

SMILES	broadleaf control [1] [%]	Grass control [2] [%]	performance (in words) ([3]; higher organic, high clay soil, compared with the three standards)	efficacy (in words) ([3]; sandy, low organic matter soil, combined with atrazine or B-128)	S. viridis control (Setaria viridis; [6]) [%]	S. viridis control (Setaria viridis; [7]) [%]	broadleaf control (broadleaf weeds; [6]) [%]	broadleaf control (broadleaf weeds; [7]) [%]	Phytotoxicity (maize [4]; [6]) [%]	Phytotoxicity (maize [4]; [7]) [%]	phytotoxicity to maize (in words) (maize [5]; in vivo)	Phytotoxicity (maize [5]; phytotoxicity to maize, greenhouse, visual rating 0-100% after two weeks, grass herbicides 1000 g/ha, atrazine 1680 g/ha, isoxaflutole 78 g/ha, B-128 125 g/ha) [%]
CCc1cccc(CC)c1N(CC#N)C(=O)CCl [Cpd 1]	22	100										
C#CCN(C(=O)CCl)c1c(C)cccc1CC [Cpd 15]	32	100										
C#CCN(C(=O)CCl)c1c(CC)cccc1CC [Cpd 16]	53	100	relatively better than two of the three standards	equal efficacy as other herbicides	96	75	33	24	0	2		
C#CCN(C(=O)CCl)c1c(C)cccc1C [Cpd 23]	33	100									moderately more phytotoxic	
CCc1cccc(C)c1N(C(=O)CCl)[C@@H](C)COC [Metolachlor S, (S)-2-chloro-N-(2-ethyl-6-methylphenyl)-N-(2-methoxy-1-methylethyl)acetamide]	41	100			100	60	40	18	0	1		0
CCOCN(C(=O)CCl)c1c(C)cccc1CC [acetochlor, 2-chloro-N-ethoxymethyl-6′-ethylacet-o-toluidide]	75	100			99	87	50	36				
COCC(C)N(C(=O)CCl)c1c(C)csc1C (centres unmarked) [dimethenamid, 2-chloro-N-[(1-methy-2-methoxyl)ethyl]-N-(2,4-dimethyl-3-thienyl)-acetamide]	68	100			100	86	44	26				
